Test results published in ChEMBL document CHEMBL1201862, “PubChem BioAssay data set” (2004).
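Five concentrations, 48 hours, 96-well plates. GI50: concentration for 50% inhibition of growth.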 The source made the active and inactive calls. Cut-off read from the data, not from the text of the source: active = GI50 up to about 1.1 µM and inactive = higher.

Tests used:
Test in all cases: NCI tumour cell line growth inhibition, 48 h
[1] = test system: 786-0
[2] = test system: A498
[3] = test system: A549
[4] = test system: ACHN
[5] = test system: BT-549
[6] = test system: CAKI-1
[7] = test system: CCRF-CEM
[8] = test system: COLO 205
[9] = test system: DU-145
[10] = test system: EKVX
[11] = test system: HCC 2998
[12] = test system: HCT-116
[13] = test system: HCT-15
[14] = test system: HL-60
[15] = test system: HOP-62
[16] = test system: HOP-92
[17] = test system: HT-29
[18] = test system: Hs-578T
[19] = test system: IGROV-1
[20] = test system: K562
[21] = test system: KM12
[22] = test system: LOX IMVI
[23] = test system: M14
[24] = test system: MCF7
[25] = test system: MDA-MB-231
[26] = test system: MDA-MB-435
[27] = test system: MDA-N
[28] = test system: Malme-3M
[29] = test system: NCI-H226
[30] = test system: NCI-H23
[31] = test system: NCI-H460
[32] = test system: NCI-H522
[33] = test system: NCI/ADR-RES
[34] = test system: OVCAR-3
[35] = test system: OVCAR-4
[36] = test system: OVCAR-5
[37] = test system: OVCAR-8
[38] = test system: PC-3
[39] = test system: RPMI-8226
[40] = test system: RXF 393
[41] = test system: SF-268
[42] = test system: SF-295
[43] = test system: SF-539
[44] = test system: SK-MEL-28
[45] = test system: SK-MEL-2
[46] = test system: SK-MEL-5
[47] = test system: SK-OV-3
[48] = test system: SN12C
[49] = test system: SNB-19
[50] = test system: SNB-75
[51] = test system: SR
[52] = test system: SW-620
[53] = test system: T47D
[54] = test system: TK-10
[55] = test system: U-251
[56] = test system: UACC-257
[57] = test system: UACC-62
[58] = test system: UO-31
[59] = test system: MOLT-4

For `CCOc1ccc2ccc3cccnc3c2n1`, the GI50 [1] was 66.2 µM (inactive), the GI50 [2] was 21 µM (inactive) and the GI50 [3] was 61 µM (inactive). The GI50 [4] was 40.6 µM (inactive), the GI50 [5] was > 100 µM (inactive) and the GI50 [6] was > 100 µM (inactive). For the same compound, the GI50 [7] was 59 µM (inactive), the GI50 [8] was 28.7 µM (inactive) and the GI50 [9] was > 100 µM (inactive). The GI50 [10] was 36.5 µM (inactive), the GI50 [11] was 51.6 µM (inactive) and the GI50 [12] was 34 µM (inactive). For the same compound, the GI50 [13] was 54.3 µM, the GI50 [14] was 22.3 µM (inactive) and the GI50 [15] was 18.5 µM (inactive). The GI50 [16] was 44.7 µM (inactive), the GI50 [17] was 34.1 µM (inactive) and the GI50 [18] was > 100 µM (inactive). For the same compound, the GI50 [19] was 38.5 µM (inactive), the GI50 [20] was 31.9 µM (inactive) and the GI50 [21] was 45.4 µM (inactive). The GI50 [22] was 49.1 µM (inactive), the GI50 [23] was 47.2 µM (inactive) and the GI50 [24] was 18.4 µM (inactive). For the same compound, the GI50 [25] was 38.4 µM (inactive), the GI50 [26] was 49.3 µM (inactive) and the GI50 [27] was > 100 µM (inactive). For the same compound, the GI50 [28] was 97.1 µM (inactive), the GI50 [29] was 39 µM (inactive) and the GI50 [30] was 61.7 µM (inactive). The GI50 [31] was 36.3 µM (inactive), the GI50 [32] was > 100 µM (inactive) and the GI50 [33] was 37.7 µM (inactive). For the same compound, the GI50 [34] was 21.9 µM (inactive), the GI50 [35] was 69.2 µM (inactive) and the GI50 [36] was 55.6 µM (inactive). The GI50 [37] was 72.8 µM (inactive), the GI50 [38] was 34.2 µM (inactive) and the GI50 [39] was 23.2 µM (inactive). For the same compound, the GI50 [40] was 68.9 µM (inactive), the GI50 [41] was > 100 µM (inactive) and the GI50 [42] was 39.3 µM (inactive). The GI50 [43] was > 100 µM (inactive), the GI50 [44] was > 100 µM (inactive) and the GI50 [45] was 81.7 µM (inactive). The GI50 [46] was 32.7 µM (inactive), the GI50 [47] was 43.4 µM (inactive) and the GI50 [48] was > 100 µM (inactive). For the same compound, the GI50 [49] was > 100 µM (inactive), the GI50 [50] was 85.9 µM (inactive) and the GI50 [51] was 18.9 µM (inactive). The GI50 [52] was 62.7 µM (inactive), the GI50 [53] was 32.7 µM (inactive) and the GI50 [54] was 34.2 µM (inactive). For the same compound, the GI50 [55] was 48.4 µM (inactive), the GI50 [56] was 26.9 µM (inactive) and the GI50 [57] was 27 µM (inactive). For the same compound, the GI50 [58] was 64 µM (inactive).
`CCCCCCCCCCC1OC([C@@H](O)CC[C@H](O)C2CC[C@@H](CCCCCCCC(O)CC3=CC(C)OC3=O)O2)CCC1O` (stereo not given in full) was tested, and the GI50 [1] was 11.5 µM (inactive), the GI50 [2] was > 14.9 µM (inactive) and the GI50 [3] was 5.21 µM (inactive). The GI50 [4] was 6.38 µM (inactive), the GI50 [5] was 12.4 µM (inactive) and the GI50 [6] was 11.7 µM (inactive). For the same compound, the GI50 [7] was 5.97 µM (inactive), the GI50 [8] was 6.85 µM (inactive) and the GI50 [9] was 14.6 µM (inactive). The GI50 [10] was 2.09 µM (inactive), the GI50 [11] was 8 µM (inactive) and the GI50 [12] was 0.148 µM (active). For the same compound, the GI50 [13] was 10.1 µM, the GI50 [14] was 2.74 µM (inactive) and the GI50 [15] was 4.53 µM (inactive). For the same compound, the GI50 [16] was 8.95 µM (inactive), the GI50 [17] was 5.4 µM (inactive) and the GI50 [18] was 2.68 µM (inactive). The GI50 [19] was 2.61 µM (inactive), the GI50 [20] was 0.204 µM (active) and the GI50 [21] was 2.58 µM (inactive). The GI50 [22] was 1.27 µM (inactive), the GI50 [23] was 8.04 µM (inactive) and the GI50 [24] was 6.79 µM (inactive). For the same compound, the GI50 [25] was > 16.3 µM (inactive), the GI50 [26] was 7.24 µM (inactive) and the GI50 [27] was 3.57 µM (inactive). For the same compound, the GI50 [28] was 14 µM (inactive), the GI50 [29] was 14 µM (inactive) and the GI50 [30] was 0.363 µM (active). The GI50 [31] was 1.52 µM (inactive), the GI50 [32] was 5.89 µM (inactive) and the GI50 [33] was 1.5 µM (inactive). For the same compound, the GI50 [34] was 5.64 µM (inactive), the GI50 [35] was 8.61 µM (inactive) and the GI50 [36] was > 15 µM (inactive). For the same compound, the GI50 [37] was 3.79 µM (inactive), the GI50 [38] was 5.94 µM (inactive) and the GI50 [39] was 3.59 µM (inactive). The GI50 [40] was > 9.77 µM (inactive), the GI50 [41] was 2.35 µM (inactive) and the GI50 [42] was 0.708 µM (active). For the same compound, the GI50 [43] was 14.4 µM (inactive), the GI50 [44] was > 17.9 µM (inactive) and the GI50 [45] was 9.08 µM (inactive). The GI50 [46] was 0.115 µM (active), the GI50 [47] was 7.67 µM (inactive) and the GI50 [48] was 9.12 µM (inactive). The GI50 [49] was 9.46 µM (inactive), the GI50 [50] was 3.41 µM (inactive) and the GI50 [51] was 0.0025 µM (active). For the same compound, the GI50 [52] was > 17.9 µM (inactive), the GI50 [53] was 7.71 µM (inactive) and the GI50 [54] was 11.7 µM (inactive). The GI50 [55] was 14.4 µM (inactive), the GI50 [56] was 0.622 µM (active) and the GI50 [57] was 4.72 µM (inactive). For the same compound, the GI50 [58] was 4.41 µM (inactive).
For `C/C=C/[C@H]1O[C@@](O)([C@@H](C)[C@H](O)[C@H](C)[C@H]2OC(=O)/C(OC)=C/C(C)=C/[C@@H](C)[C@@H](O)[C@@H](CC)[C@@H](O)[C@H](C)C/C(C)=C/C=C/[C@@H]2OC)C[C@H](OC2CC(O)C(O)C(C)O2)[C@@H]1C` (stereo not given in full), the GI50 [1] was < 0.0075 µM (active), the GI50 [2] was 5.01 µM (inactive) and the GI50 [3] was < 0.0075 µM (active). The GI50 [4] was < 0.0075 µM (active), the GI50 [5] was < 0.0075 µM (active) and the GI50 [6] was < 0.0075 µM (active). For the same compound, the GI50 [7] was < 0.0075 µM (active), the GI50 [8] was < 0.0075 µM (active) and the GI50 [9] was 0.256 µM (active). For the same compound, the GI50 [10] was < 0.0075 µM (active), the GI50 [11] was < 0.0075 µM (active) and the GI50 [12] was < 0.0075 µM (active). For the same compound, the GI50 [13] was less than 0.0075 µM, the GI50 [14] was < 0.0075 µM (active) and the GI50 [15] was < 0.0075 µM (active). For the same compound, the GI50 [16] was 0.19 µM (active), the GI50 [17] was < 0.0075 µM (active) and the GI50 [18] was < 0.0075 µM (active). For the same compound, the GI50 [19] was < 0.0075 µM (active), the GI50 [20] was < 0.0075 µM (active) and the GI50 [21] was < 0.0075 µM (active). The GI50 [22] was < 0.0075 µM (active), the GI50 [23] was < 0.0075 µM (active) and the GI50 [24] was < 0.0075 µM (active). The GI50 [25] was < 0.0075 µM (active), the GI50 [26] was < 0.0075 µM (active) and the GI50 [27] was < 0.0075 µM (active). For the same compound, the GI50 [59] was < 0.0075 µM (active), the GI50 [28] was < 0.0075 µM (active) and the GI50 [29] was < 0.0075 µM (active). The GI50 [30] was 0.406 µM (active), the GI50 [31] was < 0.0075 µM (active) and the GI50 [32] was < 0.0075 µM (active). For the same compound, the GI50 [33] was < 0.0075 µM (active), the GI50 [34] was < 0.0075 µM (active) and the GI50 [35] was 0.244 µM (active). The GI50 [36] was 3.49 µM (inactive), the GI50 [37] was < 0.0075 µM (active) and the GI50 [38] was < 0.0075 µM (active). For the same compound, the GI50 [39] was < 0.0075 µM (active), the GI50 [40] was 0.121 µM (active) and the GI50 [41] was < 0.0075 µM (active). For the same compound, the GI50 [42] was < 0.0075 µM (active), the GI50 [43] was < 0.0075 µM (active) and the GI50 [44] was 0.114 µM (active). For the same compound, the GI50 [45] was < 0.0075 µM (active), the GI50 [46] was < 0.0075 µM (active) and the GI50 [47] was 8.04 µM (inactive). The GI50 [48] was 7.78 µM (inactive), the GI50 [49] was 3.42 µM (inactive) and the GI50 [50] was 8.59 µM (inactive). The GI50 [51] was < 0.0075 µM (active), the GI50 [52] was < 0.0075 µM (active) and the GI50 [53] was < 0.0075 µM (active). The GI50 [54] was 9.48 µM (inactive), the GI50 [55] was < 0.0075 µM (active) and the GI50 [56] was < 0.0075 µM (active). For the same compound, the GI50 [57] was < 0.0075 µM (active) and the GI50 [58] was < 0.0075 µM (active).
